From ChEMBL document CHEMBL5465560, “Selectivity Literature for EUbOPEN Chemogenomic Library” (2024) come the findings set out here.

Structures are written as SMILES.

Experiment [1] deals with Macrophage colony-stimulating factor 1 receptor (Homo sapiens) (UniProt P07333). In words: Selectivity interaction (Ambit KINOMEscan and KiNATiv profiling in Jurkat cells) EUB0000090b CSF1R. Type of experiment: cell-based. Particulars: at 1 µM.
The target in experiment [2] is T1, Ephrin type-A receptor 8 (Homo sapiens) (UniProt P29322).
T1 sequence (whole entry): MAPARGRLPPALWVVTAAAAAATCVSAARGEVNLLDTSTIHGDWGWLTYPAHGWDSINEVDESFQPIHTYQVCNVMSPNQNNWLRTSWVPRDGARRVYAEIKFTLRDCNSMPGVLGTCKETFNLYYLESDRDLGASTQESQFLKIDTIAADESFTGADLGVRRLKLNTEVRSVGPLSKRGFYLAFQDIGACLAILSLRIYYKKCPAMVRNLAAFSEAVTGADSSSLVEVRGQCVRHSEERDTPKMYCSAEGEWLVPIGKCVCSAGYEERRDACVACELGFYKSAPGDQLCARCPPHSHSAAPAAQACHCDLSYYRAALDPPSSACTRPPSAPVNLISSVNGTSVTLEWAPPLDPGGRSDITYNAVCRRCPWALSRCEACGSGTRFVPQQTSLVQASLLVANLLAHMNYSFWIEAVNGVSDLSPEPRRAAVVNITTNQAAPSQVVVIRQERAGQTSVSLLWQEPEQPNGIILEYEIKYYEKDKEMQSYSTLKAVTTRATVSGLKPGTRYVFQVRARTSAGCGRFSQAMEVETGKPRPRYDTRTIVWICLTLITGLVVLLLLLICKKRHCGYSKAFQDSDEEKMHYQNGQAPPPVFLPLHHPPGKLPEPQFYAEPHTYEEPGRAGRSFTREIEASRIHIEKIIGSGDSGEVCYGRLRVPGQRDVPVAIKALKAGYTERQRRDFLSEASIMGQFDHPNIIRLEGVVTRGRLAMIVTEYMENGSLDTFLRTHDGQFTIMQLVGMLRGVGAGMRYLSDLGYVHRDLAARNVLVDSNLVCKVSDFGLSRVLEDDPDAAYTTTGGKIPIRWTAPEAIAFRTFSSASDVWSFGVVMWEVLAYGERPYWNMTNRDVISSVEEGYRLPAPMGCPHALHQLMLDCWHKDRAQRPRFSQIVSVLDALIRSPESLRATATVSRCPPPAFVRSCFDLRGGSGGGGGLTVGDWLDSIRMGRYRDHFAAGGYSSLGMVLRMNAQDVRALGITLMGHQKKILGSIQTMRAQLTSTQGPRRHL
The experiment can be described thus: Selectivity interaction (KinomeScan (DiscoverX)) EUB0000666a EPHA8. Particulars: at 10 µM.

Experiment [3] has as its target T2, Mitogen-activated protein kinase kinase kinase 5 (Homo sapiens) (UniProt Q99683).
T2 sequence (whole entry): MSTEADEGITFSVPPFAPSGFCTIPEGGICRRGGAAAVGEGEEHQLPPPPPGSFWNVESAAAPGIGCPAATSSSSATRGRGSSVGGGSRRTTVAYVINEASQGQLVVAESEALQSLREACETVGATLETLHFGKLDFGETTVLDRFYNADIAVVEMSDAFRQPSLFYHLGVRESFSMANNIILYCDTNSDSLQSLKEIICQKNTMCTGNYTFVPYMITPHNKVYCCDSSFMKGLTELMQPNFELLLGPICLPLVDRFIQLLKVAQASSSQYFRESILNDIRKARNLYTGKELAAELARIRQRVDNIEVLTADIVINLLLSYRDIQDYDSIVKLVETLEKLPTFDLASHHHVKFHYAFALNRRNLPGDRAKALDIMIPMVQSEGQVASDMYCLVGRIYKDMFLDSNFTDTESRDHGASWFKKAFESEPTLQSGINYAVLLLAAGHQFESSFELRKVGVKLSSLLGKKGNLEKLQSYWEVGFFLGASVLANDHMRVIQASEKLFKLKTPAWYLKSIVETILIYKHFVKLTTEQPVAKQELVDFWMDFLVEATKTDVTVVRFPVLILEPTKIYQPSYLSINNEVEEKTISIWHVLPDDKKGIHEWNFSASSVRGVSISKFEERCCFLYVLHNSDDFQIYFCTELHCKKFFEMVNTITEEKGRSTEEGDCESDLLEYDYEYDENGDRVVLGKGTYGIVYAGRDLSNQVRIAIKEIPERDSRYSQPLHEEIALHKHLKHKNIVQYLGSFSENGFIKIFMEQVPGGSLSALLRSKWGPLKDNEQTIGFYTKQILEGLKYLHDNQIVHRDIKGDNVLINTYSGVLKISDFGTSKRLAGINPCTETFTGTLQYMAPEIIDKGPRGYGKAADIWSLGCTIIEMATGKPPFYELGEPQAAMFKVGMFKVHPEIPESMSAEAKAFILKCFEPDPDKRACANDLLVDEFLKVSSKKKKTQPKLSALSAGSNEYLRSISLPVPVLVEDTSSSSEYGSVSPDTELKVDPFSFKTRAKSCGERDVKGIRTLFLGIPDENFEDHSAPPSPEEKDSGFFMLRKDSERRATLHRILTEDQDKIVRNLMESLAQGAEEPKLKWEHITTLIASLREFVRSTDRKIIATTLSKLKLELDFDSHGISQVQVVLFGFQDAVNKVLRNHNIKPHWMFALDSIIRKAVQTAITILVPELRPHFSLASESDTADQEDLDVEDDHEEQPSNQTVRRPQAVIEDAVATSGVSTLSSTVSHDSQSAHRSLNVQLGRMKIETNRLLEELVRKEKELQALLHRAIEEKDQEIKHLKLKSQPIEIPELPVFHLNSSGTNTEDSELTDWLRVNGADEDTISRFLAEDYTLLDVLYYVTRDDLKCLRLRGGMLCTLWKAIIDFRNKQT
The experiment can be described thus: Selectivity interaction (Kinase panel (Invitrogen)) EUB0000639a MAP3K5. Particulars: at 200 nM.

Experiment [4] deals with Serine/threonine-protein kinase 10 (Homo sapiens) (UniProt O94804). The experiment can be described thus: Selectivity interaction (ActivX KiNativ screen (kinase selectivity in THP-1 cell lysates)) EUB0000639a STK10. It counts as subcellular. Particulars: lysate, at 0.2 µM.
Serine/threonine-protein kinase 10 (Homo sapiens), sequence (O94804 whole entry, looked up): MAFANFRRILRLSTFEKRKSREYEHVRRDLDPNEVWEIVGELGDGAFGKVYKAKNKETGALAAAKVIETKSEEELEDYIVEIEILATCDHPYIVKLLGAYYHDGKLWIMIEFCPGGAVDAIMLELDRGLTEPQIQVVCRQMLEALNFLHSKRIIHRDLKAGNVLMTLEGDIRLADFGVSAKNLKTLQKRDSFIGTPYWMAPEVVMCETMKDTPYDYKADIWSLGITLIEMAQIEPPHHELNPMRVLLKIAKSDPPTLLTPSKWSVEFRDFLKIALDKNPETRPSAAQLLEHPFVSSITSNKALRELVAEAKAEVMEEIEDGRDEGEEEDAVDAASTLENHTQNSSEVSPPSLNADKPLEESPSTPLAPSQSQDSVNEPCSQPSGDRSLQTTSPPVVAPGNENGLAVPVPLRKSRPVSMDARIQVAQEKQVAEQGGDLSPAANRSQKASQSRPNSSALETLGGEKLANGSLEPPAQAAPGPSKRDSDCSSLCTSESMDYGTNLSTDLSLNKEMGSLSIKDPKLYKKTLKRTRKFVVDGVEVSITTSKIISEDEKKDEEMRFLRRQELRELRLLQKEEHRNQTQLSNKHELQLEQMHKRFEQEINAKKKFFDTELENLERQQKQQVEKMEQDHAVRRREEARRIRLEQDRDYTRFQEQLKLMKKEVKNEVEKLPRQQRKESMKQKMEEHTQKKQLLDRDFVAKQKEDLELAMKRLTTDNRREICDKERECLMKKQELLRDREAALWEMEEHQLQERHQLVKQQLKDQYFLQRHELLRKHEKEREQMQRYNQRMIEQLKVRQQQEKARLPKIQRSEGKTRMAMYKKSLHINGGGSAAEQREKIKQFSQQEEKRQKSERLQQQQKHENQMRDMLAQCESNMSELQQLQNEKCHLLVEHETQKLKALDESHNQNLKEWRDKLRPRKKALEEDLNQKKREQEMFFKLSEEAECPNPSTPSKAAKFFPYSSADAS

Macrophage colony-stimulating factor 1 receptor (Homo sapiens), sequence (P07333 whole entry): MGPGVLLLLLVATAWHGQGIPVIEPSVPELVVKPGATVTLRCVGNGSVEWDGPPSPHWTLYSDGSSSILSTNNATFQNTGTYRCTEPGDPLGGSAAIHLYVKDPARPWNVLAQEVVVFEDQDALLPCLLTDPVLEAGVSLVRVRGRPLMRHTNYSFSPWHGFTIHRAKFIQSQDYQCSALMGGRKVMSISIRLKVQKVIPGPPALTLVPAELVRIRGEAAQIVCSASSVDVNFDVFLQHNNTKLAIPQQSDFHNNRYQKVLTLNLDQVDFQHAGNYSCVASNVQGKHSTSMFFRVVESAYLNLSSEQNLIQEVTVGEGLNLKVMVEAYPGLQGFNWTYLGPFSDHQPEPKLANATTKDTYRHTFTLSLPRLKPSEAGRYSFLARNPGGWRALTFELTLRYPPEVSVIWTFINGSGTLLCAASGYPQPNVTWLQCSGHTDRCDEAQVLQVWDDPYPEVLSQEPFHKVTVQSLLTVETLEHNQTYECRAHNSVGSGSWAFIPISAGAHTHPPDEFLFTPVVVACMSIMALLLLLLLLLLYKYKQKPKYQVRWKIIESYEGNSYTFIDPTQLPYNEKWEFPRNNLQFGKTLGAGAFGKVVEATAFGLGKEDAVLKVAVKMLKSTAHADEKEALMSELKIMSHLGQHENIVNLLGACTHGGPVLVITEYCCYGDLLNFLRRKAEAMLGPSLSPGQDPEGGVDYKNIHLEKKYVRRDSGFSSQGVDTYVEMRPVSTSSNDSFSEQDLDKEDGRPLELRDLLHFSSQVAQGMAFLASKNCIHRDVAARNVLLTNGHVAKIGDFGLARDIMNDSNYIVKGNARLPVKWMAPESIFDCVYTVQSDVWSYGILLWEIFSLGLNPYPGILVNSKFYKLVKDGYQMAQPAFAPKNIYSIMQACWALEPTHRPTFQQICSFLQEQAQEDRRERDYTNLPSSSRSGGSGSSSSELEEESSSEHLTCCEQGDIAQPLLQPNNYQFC

Regarding `CN(C)C/C=C/C(=O)Nc1ccc(C(=O)N2CCCC(Nc3ncc(Cl)c(-c4c[nH]c5ccccc45)n3)C2)cc1` (centres undefined), in experiment [1], the % of control was found to be 90%.

In experiment [2], `O=C(NOC[C@H](O)CO)c1ccc(F)c(F)c1Nc1ccc(I)cc1F` showed a % of control of 94%.

Take `CC[C@@H]1[C@H](F)C(=O)N[C@@H]1COc1nccc2cc(C(N)=O)c(OC)cc12` [ZIMLOVISERTIB]: the % of inhibition is -8.62% in experiment [3] and -8.1% in experiment [4].
